Measured values reported in ChEMBL document CHEMBL1201862, “PubChem BioAssay data set” (2004).
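Exposure lasted 48 hours, with cells grown in 96-well plates and compounds tested at five concentrations. GI50 is the concentration that inhibits growth by half.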 Activity calls are given as the source filed them. Rule as the data show it: active = GI50 up to about 1.1 µM and inactive = higher.

Columns and labels:
Experiment in all cases: growth of human tumour cells (NCI), 48 h
PC-3 = system: PC-3
HOP-92 = system: HOP-92
OVCAR-8 = system: OVCAR-8
Malme-3M = system: Malme-3M
KM12 = system: KM12
MDA-MB-231 = system: MDA-MB-231
HOP-62 = system: HOP-62
IGROV-1 = system: IGROV-1
BT-549 = system: BT-549
SF-539 = system: SF-539
NCI-H460 = system: NCI-H460
CAKI-1 = system: CAKI-1
SNB-19 = system: SNB-19
SR = system: SR
A549 = system: A549
HT-29 = system: HT-29
HCT-116 = system: HCT-116
ACHN = system: ACHN
M14 = system: M14
NCI/ADR-RES = system: NCI/ADR-RES

Row | Compound | GI50 (PC-3) | GI50 (HOP-92) | GI50 (OVCAR-8) | GI50 (Malme-3M) | GI50 (KM12) | GI50 (MDA-MB-231) | GI50 (HOP-62) | GI50 (IGROV-1) | GI50 (BT-549) | GI50 (SF-539) | GI50 (NCI-H460) | GI50 (CAKI-1) | GI50 (SNB-19) | GI50 (SR) | GI50 (A549) | GI50 (HT-29) | GI50 (HCT-116) | GI50 (ACHN) | GI50 (M14) | GI50 (NCI/ADR-RES)
1 | O=C(Nc1ccc2ccccc2c1)Nn1cnnc1 | > 100 µM (inactive) | > 100 µM (inactive) | > 100 µM (inactive) | > 100 µM (inactive) | > 100 µM (inactive) | > 100 µM (inactive) | > 100 µM (inactive) | > 100 µM (inactive) | > 100 µM (inactive) | > 100 µM (inactive) | > 100 µM (inactive) | > 100 µM (inactive) | > 100 µM (inactive) | > 100 µM (inactive) | > 100 µM (inactive) | > 100 µM (inactive) | > 100 µM (inactive) | > 100 µM (inactive) | > 100 µM (inactive) | –
2 | O=C(Nc1ccc(C(F)(F)F)cc1[N+](=O)[O-])c1cccnc1 | – | – | – | 2.15 µM (inactive) | 2.57 µM (inactive) | 17.4 µM (inactive) | 54.5 µM (inactive) | 6.44 µM (inactive) | 7.06 µM (inactive) | 3.37 µM (inactive) | 3.15 µM (inactive) | 2.81 µM (inactive) | 9.48 µM (inactive) | 1.01 µM (active) | 6.75 µM (inactive) | 2.04 µM (inactive) | 7.24 µM (inactive) | 7.01 µM (inactive) | 5.09 µM (inactive) | 6.9 µM (inactive)
3 | CC(=O)OCC(OC(C)=O)C(OC(C)=O)C(OC(C)=O)C(C=NN(C(C)=O)S(=O)(=O)c1ccc(/C=C2\NC(=O)NC2=O)cc1)OC(C)=O (stereo not drawn) | > 100 µM (inactive) | – | > 100 µM (inactive) | > 100 µM (inactive) | > 100 µM (inactive) | > 100 µM (inactive) | > 100 µM (inactive) | > 100 µM (inactive) | > 100 µM (inactive) | – | > 100 µM (inactive) | > 100 µM (inactive) | > 100 µM (inactive) | – | > 100 µM (inactive) | > 100 µM (inactive) | > 100 µM (inactive) | > 100 µM (inactive) | > 100 µM (inactive) | > 100 µM (inactive)
4 | Cc1nn(C(=O)Cc2ccccc2)c2c1C(c1ccccc1)SC(=N)N2 (stereo not drawn) | > 100 µM (inactive) | – | > 100 µM (inactive) | > 100 µM (inactive) | > 100 µM (inactive) | > 100 µM (inactive) | > 100 µM (inactive) | > 100 µM (inactive) | > 100 µM (inactive) | > 100 µM (inactive) | > 100 µM (inactive) | > 100 µM (inactive) | > 100 µM (inactive) | > 100 µM (inactive) | > 100 µM (inactive) | > 100 µM (inactive) | > 100 µM (inactive) | > 100 µM (inactive) | > 100 µM (inactive) | –
5 | CCCNC(=O)Cn1c2c(c3ccccc31)CCCC2 | 63.8 µM (inactive) | > 100 µM (inactive) | > 100 µM (inactive) | > 100 µM (inactive) | – | – | 78 µM (inactive) | > 100 µM (inactive) | 87.7 µM (inactive) | 37.1 µM (inactive) | 58.2 µM (inactive) | 77.1 µM (inactive) | 36.7 µM (inactive) | 42.8 µM (inactive) | 53.8 µM (inactive) | > 100 µM (inactive) | 29.2 µM (inactive) | 34.9 µM (inactive) | > 100 µM (inactive) | 50.9 µM (inactive)
6 | Cc1cc(C)c2c(c1)C(=O)/C(=C/c1ccccc1C(=O)O)C2 | 43.2 µM (inactive) | > 100 µM (inactive) | 68.4 µM (inactive) | > 100 µM (inactive) | 94.6 µM (inactive) | 50.2 µM (inactive) | 67.5 µM (inactive) | > 100 µM (inactive) | 78 µM (inactive) | 25.9 µM (inactive) | 58.5 µM (inactive) | > 100 µM (inactive) | 50.1 µM (inactive) | 62.4 µM (inactive) | 65.6 µM (inactive) | 59 µM (inactive) | 63 µM (inactive) | > 100 µM (inactive) | 90.4 µM (inactive) | –
